Reference: PubChem BioAssay AID977614 (Broad Institute, 2014)
The source made the active and inactive calls.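 Rule for the calls: active = parasite count per well reduced by over 3 SD from the mean, with host cell number above 80% of untreated; inactive = the rest.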

Test system: L. donovani amastigotes in THP-1 macrophages, DAPI imaging, 72 h
Assay: antileishmanial activity in infected macrophages – imaging, THP-1 host macrophages, single concentration (AID 977614);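 note: signal is the parasite per host cell ratio from DAPI stained kinetoplasts and nuclei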

Structure (SMILES) | AC50
C[C@H]1CN([C@@H](C)CO)C(=O)CCCn2nncc2CO[C@H]1CN(C)S(=O)(=O)c1cn(C)cn1 | > 10 µM (inactive)
C[C@H](CO)N1C[C@H](C)[C@@H](CN(C)S(=O)(=O)c2ccc(Oc3ccccc3)nc2)OCc2cnnn2CCCC1=O | > 10 µM (inactive)
O=C(CN1CCOCC1)NC[C@H]1N[C@H](CO)[C@@H]1c1ccc(-c2ccccc2)cc1 | > 10 µM (inactive)
CC(C)N(C[C@@H]1[C@@H](c2ccccc2)[C@@H](CO)N1S(C)(=O)=O)C(=O)CN(C)C | > 10 µM (inactive)
Cc1cccc(S(=O)(=O)N2C[C@@H]3[C@H](c4ccccc42)[C@H](CO)N3CC2CCCC2)c1 | > 10 µM (inactive)
C[C@@H]1CN([C@H](C)CO)C(=O)CCCn2cc(nn2)CO[C@H]1CN(C)C(=O)Nc1cccc2ccccc12 | > 10 µM (inactive)
CC(=O)N(Cc1cccc(F)c1)C[C@@H]1[C@@H](c2ccccc2)[C@@H](CO)N1C(C)=O | > 10 µM (inactive)
C[C@H]1CN([C@@H](C)CO)C(=O)CCCn2nncc2CO[C@H]1CN(C)C(=O)c1ccc2ccn(C)c2c1 | > 10 µM (inactive)
C[C@@H]1CN([C@@H](C)CO)C(=O)CCCn2cc(nn2)CO[C@H]1CN(C)C(=O)CCC(F)(F)F | > 10 µM (inactive)
C[C@@H]1CN([C@H](C)CO)C(=O)CCCn2nncc2CO[C@@H]1CN(C)S(=O)(=O)c1cn(C)cn1 | > 10 µM (inactive)
C[C@H]1CN([C@@H](C)CO)C(=O)CCCn2cc(nn2)CO[C@H]1CN(C)C(=O)Nc1ccc2c(c1)OCO2 | > 10 µM (inactive)
C[C@@H]1CN([C@@H](C)CO)C(=O)CCCn2cc(nn2)CO[C@H]1CN(C)C(=O)Oc1ccc2ccccc2c1 | > 10 µM (inactive)
C[C@H]1CN([C@@H](C)CO)C(=O)CCCn2nncc2CO[C@H]1CN(C)C(=O)Nc1ccc(-c2cccs2)cc1 | > 10 µM (inactive)
C[C@H]1CN([C@@H](C)CO)C(=O)CCCn2nncc2CO[C@@H]1CN(C)S(=O)(=O)c1ccc2c(c1)OCCCO2 | > 10 µM (inactive)
C[C@@H]1CN([C@H](C)CO)C(=O)CCCn2cc(nn2)CO[C@H]1CN(C)S(=O)(=O)c1cccc(C#N)c1 | > 10 µM (inactive)
C[C@@H]1CN([C@@H](C)CO)C(=O)CCCn2cc(nn2)CO[C@@H]1CN(C)C(=O)Nc1ccc2c(c1)OCO2 | > 10 µM (inactive)
COc1ccc(C(=O)N2C[C@H]3[C@@H](c4ccccc42)[C@@H](CO)N3Cc2ccccc2Cl)cc1 | > 10 µM (inactive)
C[C@@H]1CN([C@H](C)CO)C(=O)CCCn2nncc2CO[C@@H]1CN(C)S(=O)(=O)c1ccccc1C#N | > 10 µM (inactive)
O=C(C1CCC1)N1C[C@@H]2[C@H](c3ccccc31)[C@H](CO)N2C(=O)Nc1cccc(F)c1 | > 10 µM (inactive)
CC(=O)N1[C@H](CO)[C@H](c2ccccc2)[C@H]1CN(C)S(=O)(=O)c1ccccc1 | > 10 µM (inactive)
CCC(=O)N1[C@@H]2CN(C(=O)Nc3ccc(Cl)cc3)c3ccccc3[C@@H]2[C@@H]1CO | > 10 µM (inactive)
Cc1cccc(S(=O)(=O)N2C[C@H]3[C@@H](c4ccccc42)[C@@H](CO)N3CC2CCCC2)c1 | > 10 µM (inactive)
O=C(Cc1ccccn1)N1[C@@H](CO)[C@@H]2c3ccccc3NC[C@@H]21 | > 10 µM (inactive)
O=C(C1CCCCC1)N1[C@@H]2CN(S(=O)(=O)c3ccccc3)c3ccccc3[C@@H]2[C@@H]1CO | > 10 µM (inactive)
COc1ccccc1NC(=O)N1C[C@@H]2[C@H](c3ccccc31)[C@H](CO)N2C(=O)C1CCCC1 | > 10 µM (inactive)
CC(C)N(C[C@H]1[C@H](c2ccccc2)[C@H](CO)N1S(C)(=O)=O)C(=O)CN(C)C | > 10 µM (inactive)
O=C(Nc1ccc(Cl)cc1)N1C[C@H]2[C@@H](c3ccccc31)[C@@H](CO)N2CC1CCCCC1 | > 10 µM (inactive)

Structure (SMILES) | AC50
CCN(C[C@H]1[C@@H](c2ccccc2)[C@H](CO)N1C(=O)COC)S(C)(=O)=O | > 10 µM (inactive)
COCCN(C[C@H]1N[C@H](CO)[C@@H]1c1ccc(-c2cccc(C#N)c2)cc1)C(C)=O | > 10 µM (inactive)
COCC(=O)N(C[C@H]1N[C@H](CO)[C@@H]1c1ccc(-c2cncnc2)cc1)C(C)C | > 10 µM (inactive)
O=C(NC[C@H]1N[C@@H](CO)[C@H]1c1ccc(-c2ccccc2F)cc1)c1ccccn1 | > 10 µM (inactive)
O=S(=O)(NC[C@@H]1[C@@H](c2ccccc2)[C@H](CO)N1CC1CC1)c1ccccc1 | > 10 µM (inactive)
C[C@@H]1CN([C@H](C)CO)C(=O)CCCn2nncc2CO[C@H]1CN(C)C(=O)Nc1ccnc(N2CCOCC2)c1 | > 10 µM (inactive)
CC(=O)N1[C@H](CO)[C@@H](c2ccccc2)[C@@H]1CNC(=O)CN1CCOCC1 | > 10 µM (inactive)
C[C@@H]1CN([C@@H](C)CO)C(=O)CCCn2nncc2CO[C@@H]1CN(C)Cc1cccc2c1OCCCO2 | > 10 µM (inactive)
C[C@@H]1CN([C@H](C)CO)C(=O)CCCn2nncc2CO[C@H]1CN(C)Cc1ccc2cccnc2c1 | > 10 µM (inactive)
CCC(=O)N1[C@H](CO)[C@H](c2ccccc2)[C@H]1CN(CC)C(=O)c1cccc(F)c1 | > 10 µM (inactive)
CCC(=O)N1[C@H](CO)[C@H](c2ccc(C#CC3CCCCC3)cc2)[C@@H]1CNC(C)C | > 10 µM (inactive)
C/C=C/c1ccc([C@@H]2[C@H](CO)N(C(C)=O)[C@H]2CNC(=O)c2ccccc2)cc1 | > 10 µM (inactive)
CCC(=O)N1C[C@H]2[C@@H](c3ccccc31)[C@H](CO)N2C(=O)CC1CC1 | > 10 µM (inactive)
O=C(CN1CCOCC1)N1[C@H](CO)[C@H]2c3ccccc3NC[C@H]21 | > 10 µM (inactive)
CC(C)CNC[C@@H]1[C@@H](c2ccccc2)[C@@H](CO)N1Cc1ccc(F)cc1 | > 10 µM (inactive)
O=C(c1ccccn1)N1C[C@H]2[C@@H](c3ccccc31)[C@H](CO)N2C(=O)C1CCCCC1 | > 10 µM (inactive)
C[C@@H]1CN([C@@H](C)CO)C(=O)CCCn2nncc2CO[C@H]1CN(C)Cc1ccc2c(c1)OCCN2C | > 10 µM (inactive)
O=C(c1ccncc1)N1C[C@@H]2[C@H](c3ccccc31)[C@H](CO)N2Cc1ccccc1F | > 10 µM (inactive)
C[C@@H]1CN([C@H](C)CO)C(=O)CCCn2cc(nn2)CO[C@@H]1CN(C)C(=O)NC1CCCCC1 | > 10 µM (inactive)
OC[C@H]1[C@H]2c3ccccc3NC[C@H]2N1CC1CCOCC1 | > 10 µM (inactive)
O=C(C1CCC1)N1C[C@H]2[C@@H](c3ccccc31)[C@H](CO)N2C(=O)Nc1cccc(F)c1 | > 10 µM (inactive)
C[C@H]1CN([C@@H](C)CO)C(=O)CCCn2nncc2CO[C@H]1CN(C)Cc1cccc(C(F)(F)F)c1 | > 10 µM (inactive)
CCN(C[C@@H]1[C@@H](c2ccccc2)[C@H](CO)N1CC1CC1)C(=O)c1ccccn1 | > 10 µM (inactive)
O=C(CC(F)(F)F)N1C[C@H]2[C@@H](c3ccccc31)[C@H](CO)N2C(=O)c1ccncc1 | > 10 µM (inactive)
O=C(CC(F)(F)F)N1C[C@@H]2[C@H](c3ccccc31)[C@H](CO)N2C(=O)C1CCCCC1 | > 10 µM (inactive)
C[C@@H]1CN([C@@H](C)CO)C(=O)CCCn2cc(nn2)CO[C@H]1CN(C)S(=O)(=O)c1ccc(-n2cccn2)cc1 | > 10 µM (inactive)
O=C(NC[C@H]1N[C@H](CO)[C@@H]1c1ccc(-c2ccccc2)cc1)c1cccc(F)c1 | > 10 µM (inactive)
